Results on 37 compounds are retold here after patent publication US11618746B2, “Inhibitors of APOL1 and methods of using same” (Vertex Pharmaceuticals Incorporated, priority 2018, dated 2023).

The term IC50 denotes the concentration at which inhibition is half-maximal.

The target in the assay is T1, APOL1 G1 Protein (Homo sapiens, UniProt O14791, I384M/S342G).
T1 sequence (O14791 28-398 S342G/I384M): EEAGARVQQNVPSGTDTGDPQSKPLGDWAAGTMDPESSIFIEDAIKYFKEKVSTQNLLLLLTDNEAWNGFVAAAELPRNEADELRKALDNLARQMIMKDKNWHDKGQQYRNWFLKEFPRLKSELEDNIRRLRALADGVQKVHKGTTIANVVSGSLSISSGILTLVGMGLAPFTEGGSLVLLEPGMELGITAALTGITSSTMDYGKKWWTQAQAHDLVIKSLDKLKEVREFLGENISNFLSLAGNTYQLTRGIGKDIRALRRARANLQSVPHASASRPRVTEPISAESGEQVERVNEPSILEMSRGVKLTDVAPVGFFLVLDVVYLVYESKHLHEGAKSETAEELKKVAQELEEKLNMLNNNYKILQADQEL
The assay can be described thus: Trypanosoma brucei brucei lysis assay using APOL1 recombinant protein (AlamarBlue viability readout). The class given is cell-based. The note with it: Trypanosoma brucei brucei (Lister 427 VSG 221 bloodstream form) lysis by 0.05 μg/mL recombinant APOL1 G1, 16 hrs. The text has this:
Trypanosoma brucei brucei is a blood stream parasite to which human, gorillas and baboon are immune due to the presence of the APOL1 protein in their HDL particles. The protein is uptaken by the parasite via the TbHpHb receptor located in its flagellar pocket and is bonded by the Hpr protein contained in the HDL particles which triggers the receptor endocytosis by the parasite.
Following endocytosis, the formed vesicle containing the HDL particle matures from early to late endosome, and subsequently to lysosome. The concomitant pH change in the lumen of the vesicle triggers the insertion of the APOL1 protein into the membrane of the late endosome/lysosome and hereby triggers lysosomal membrane premeabilisation and as a further downstream event, trypanosome lysis. Trypanosoma brucei brucei is sensitive to lysis by all three APOL1 variants (G0, G1, and G2).
The Trypanosoma brucei brucei lysis assay is a lysis assay of the parasite using recombinant APOL1 protein variant followed by a fluorescent detection method of viability by the addition of AlamarBlue reagent to the assay well, a general metabolic redox indicator (AlamarBlue assay).
Briefly, the AlamarBlue active compound, the resazurin, a blue, water soluble, non-toxic and cell permeable molecule, which can be followed by absorbance, is reduced by various metabolic pathways into resorufin, a red compound which can be followed by either absorbance or fluorescence. The assay allows the calculation of the percent viability (percent of living Trypanosomes remaining in each well) at the end of a lysis relative to the untreated condition by interpolation of fluorescent values (FLU) on a standard curve with a known amount of seeded trypanosome/well.
Trypanosoma brucei brucei (ATCC, Cat. No. PRA-382) • Lister 427 VSG 221 bloodstream form.
Thaw/Expansion Media (ATCC Medium 2834 Modified HMI-9 Medium)
Equipment • E1-Clip Tip pipette 12 channel adjustable 2-125 μL, Cat. No. 4672070BT • ThermoFisher MultiDrop 384, Cat. No. 5840300 • Multidrop • Agilent Bravo, Cat. No. G5409A • Bravo • SpectraMax M5
Trypanosoma brucei brucei Culture
Step 2, Day 4 • Centrifuge at 800×g for 5 minutes at room temperature. • Resuspend in 1 mL media. • Make a 1:25 fold dilution (10 μL/240 μL media). • Count on a hemocytometer (after adding parasites). • Let sit for 1-2 minutes for the parasites to settle. • Count should be approximately 100 viable motile parasites/16 grid or approximately 25×10^6 parasites/flask. • Passage the parasites by adding 1×10^6 parasites/T75 flask in 20 mL media. • Passage the parasites by adding 2.33×10^6 parasites/T175 flask in 46.6 mL media. • For every T75 flask should make enough for approximately 1.5×384 well assay plates. • For every T175 flask should make enough for approximately 3.8×384 well assay plates.
Step 3. Day 6 • Centrifuge at 800×g for 5 minutes. • Resuspend in 3 mL assay media (No phenol red, no FBS) per 75 starting flask. • Resuspend in 7 mL assay media (No phenol red, no FBS) per 175 flask • Make a 1:25 fold dilution. • Count by hemocytometer. • Every T75 flask set up should have approximately 75×10^6 parasites/flask (verify doubling time=8.7 hrs 1 hr). • Every T175 flask set up should have approximately 175×10^6 parasites/flask (verify doubling time=8.7 hrs±1 hr). • Require 46×10^6 parasites per 384 well plate (at 120,000 parasites per well).
Step 2, Day 2 • Centrifuge at 800×g for 5 minutes at room temperature. • Resuspend in 1 mL media. • Make a 1:25 fold dilution (10 L/240 μL media). • Let sit for 1-2 minutes for the parasites to settle. • Count should be approximately 100 viable motile parasites/16 grid or approximately 8×10^6 parasites per flask. • Passage the parasites by adding 1.25×10^6 parasites per T75 flask in 20 mL media. • For every T75 flask set up should have approximately 1.5×384 well assay plates. • For every T175 flask setup should have approximately 3.8×384 well assay plates. […]
Consider `Cc1c(F)c(F)cc2c(CCC(=O)N[C@@H]3C(=O)NC[C@H]3O)c(-c3ccccc3)[nH]c12` [Compound 99, 3-(5,6-difluoro-7-methyl-2-phenyl-1H-indol-3-yl)-N-[(3S,4R)-4-hydroxy-2-oxo-pyrrolidin-3-yl]propanamide], for which the IC50 is < 0.25 µM. The value for `O=C(CCc1c(-c2ccc(F)c(F)c2)[nH]c2ccccc12)N[C@@H]1C(=O)NC[C@H]1O` [Compound 129, 3-[2-(3,4-difluorophenyl)-1H-indol-3-yl]-N-[(3S,4R)-4-hydroxy-2-oxo-pyrrolidin-3-yl]propanamide] was < 0.25 µM. The value for `O=C(CCc1c(-c2ccccc2)[nH]c2cc(F)cc(F)c12)N[C@@H]1C(=O)NC[C@H]1O` [Compound 85] was < 0.25 µM. The value for `O=C(CCc1c(-c2ccc(F)cc2)[nH]c2ccc(F)cc12)NC1CCNC1=O` (stereo not shown) [Compound 48] was < 0.25 µM; that for `O=C(CCc1c(-c2ccccc2)[nH]c2cc(F)c(F)cc12)N[C@@H]1C(=O)NC[C@H]1O` [Compound 82] was < 0.25 µM; that for `O=C(CCc1c(-c2ccc(C(F)(F)F)cc2)[nH]c2ccccc12)N[C@@H]1C(=O)NC[C@H]1O` [Compound 123] was < 0.25 µM. As for `O=C(CCc1c(-c2ccccc2)[nH]c2cc(F)ccc12)N[C@@H]1C(=O)NC[C@H]1O` [Compound 109, 3-(6-fluoro-2-phenyl-1H-indol-3-yl)-N-[(3S,4R)-4-hydroxy-2-oxo-pyrrolidin-3-yl]propanamide], the IC50 is < 0.25 µM. Regarding `O=C(CCc1c(-c2ccc(F)cc2)[nH]c2c(Cl)cccc12)N[C@H]1CCNC1=O` [Compound 72], the IC50 is < 0.25 µM. The value for `O=C(CCc1c(-c2ccc(OC(F)(F)F)cc2)[nH]c2ccccc12)N[C@@H]1C(=O)NC[C@H]1O` [Compound 118] was < 0.25 µM; that for `O=C(CCc1c(-c2ccc(F)cc2)[nH]c2ccccc12)N[C@@H]1C(=O)NC[C@H]1O` [Compound 87, 3-[2-(4-fluorophenyl)-1H-indol-3-yl]-N-[(3S,4R)-4-hydroxy-2-oxo-pyrrolidin-3-yl]propanamide] was < 0.25 µM; that for `Cc1cc(F)c2[nH]c(-c3ccc(F)cc3)c(CCC(=O)N[C@@H]3C(=O)NC[C@H]3O)c2c1` [Compound 29] was < 0.25 µM. The value for `O=C(CCc1c(-c2ccc(C(F)F)cc2)[nH]c2ccccc12)N[C@@H]1C(=O)NC[C@H]1O` [Compound 131, 3-[2-[4-(difluoromethyl)phenyl]-1H-indol-3-yl]-N-[(3S,4R)-4-hydroxy-2-oxo-pyrrolidin-3-yl]propanamide] was < 0.25 µM; that for `O=C(CCc1c(-c2ccc(F)cc2)[nH]c2c(F)cc(F)cc12)N[C@H]1C[C@@H](CO)NC1=O` [Compound 7] was > 1 µM.

As for `O=C(CCc1c(-c2ccc(F)cc2)[nH]c2c(F)cc(F)cc12)N[C@H]1C[C@H](CO)NC1=O` [Compound 8], the IC50 was > 1 µM. The figure for `O=C(CCc1c(-c2cc(F)cc(F)c2)[nH]c2ccccc12)N[C@@H]1C(=O)NC[C@H]1O` [Compound 127, 3-[2-(3,5-difluorophenyl)-1H-indol-3-yl]-N-[(3S,4R)-4-hydroxy-2-oxo-pyrrolidin-3-yl]propanamide] is 0.25 to 1 µM; for `O=C(CCc1c(-c2ccccc2)[nH]c2ccc(F)cc12)N[C@H]1CCNC1=O` [Compound 52] it is < 0.25 µM; for `COc1cc(F)cc2c(CCC(=O)N[C@@H]3C(=O)NC[C@H]3O)c(-c3ccc(F)cc3)[nH]c12` [Compound 40] it is < 0.25 µM.

Turning to `O=C(CCc1c(-c2ccc(F)cc2)[nH]c2c(Cl)cccc12)N[C@@H]1C(=O)NC[C@H]1O` [Compound 73], the IC50 is < 0.25 µM. The figure for `O=C(CCc1c(-c2ccccc2)[nH]c2c(F)c(F)c(F)cc12)N[C@@H]1C(=O)NC[C@H]1O` [Compound 80] is < 0.25 µM; for `O=C(CCc1c(-c2ccc(F)cc2)[nH]c2ccc(F)cc12)N[C@@H]1CCNC1=O` [Compound 49] it is 0.25 to 1 µM. The figure for `O=C(CCc1c(-c2ccc(F)cc2)[nH]c2c(OC(F)F)cc(F)cc12)N[C@@H]1C(=O)NC[C@H]1O` [Compound 107] is 0.25 to 1 µM. The figure for `O=C(CCc1c(-c2ccc(F)cc2)[nH]c2c(F)cc(F)cc12)N[C@@H]1CCNC1=O` [Compound 13] is < 0.25 µM.

For `O=C(CCc1c(-c2ccccc2)[nH]c2c(F)cc(F)cc12)N[C@@H]1C(=O)NC[C@H]1O` [Compound 26], the IC50 is < 0.25 µM. The value for `O=C(CCc1c(-c2ccccc2)[nH]c2c(F)cccc12)N[C@@H]1C(=O)NC[C@H]1O` [Compound 61] was < 0.25 µM; that for `O=C(CCc1c(-c2ccc(F)cc2)[nH]c2c(F)cc(Br)cc12)N[C@H]1CCNC1=O` [Compound 27] was < 0.25 µM. The figure for `O=C(CCc1c(-c2ccccc2)[nH]c2ccc(F)cc12)N[C@@H]1C(=O)NC[C@H]1O` [Compound 51] is < 0.25 µM; for `O=C(CCc1c(-c2ccc(F)cc2)[nH]c2c(F)cccc12)N[C@@H]1C(=O)NC[C@H]1O` [Compound 76] it is < 0.25 µM. The value for `O=C(CCc1c(-c2cccc(F)c2)[nH]c2c(F)cc(F)cc12)N[C@@H]1C(=O)NC[C@H]1O` [Compound 103] was < 0.25 µM; that for `Cc1ccc(-c2[nH]c3ccccc3c2CCC(=O)N[C@@H]2C(=O)NC[C@H]2O)cc1` [Compound 124] was < 0.25 µM; that for `Cc1ccc2[nH]c(-c3ccc(Br)cc3)c(CCC(=O)N[C@H]3CCNC3=O)c2c1` [Compound 43, 3-[2-(4-bromophenyl)-5-methyl-1H-indol-3-yl]-N-[(3S)-2-oxopyrrolidin-3-yl]propanamide] was < 0.25 µM. For the compound `O=C(CCc1c(-c2ccc(F)cc2)[nH]c2c(Cl)cc(F)cc12)N[C@@H]1C(=O)NC[C@H]1O` [Compound 36], the 50% inhibitory concentration (IC50) was < 0.25 µM. The value for `O=C(CCc1c(-c2cc(F)cc(F)c2)[nH]c2c(F)cc(F)cc12)N[C@@H]1C(=O)NC[C@H]1O` [Compound 104] was < 0.25 µM.

Take `Cc1c(F)c(F)cc2c(CCC(=O)N[C@@H]3C(=O)NC[C@H]3O)c(-c3ccc(F)cc3)[nH]c12` [Compound 98, 3-[5,6-difluoro-2-(4-fluorophenyl)-7-methyl-1H-indol-3-yl]-N-[(3S,4R)-4-hydroxy-2-oxo-pyrrolidin-3-yl]propanamide]: the IC50 is < 0.25 µM. The value for `Cc1ccc(-c2[nH]c3ccccc3c2CCC(=O)N[C@@H]2C(=O)NC[C@H]2O)c(F)c1` [Compound 122] was < 0.25 µM; that for `Cc1ccc(-c2[nH]c3ccccc3c2CCC(=O)N[C@@H]2C(=O)NC[C@H]2O)cc1F` [Compound 126] was < 0.25 µM. As for `O=C(CCc1c(-c2ccc(Cl)c(F)c2)[nH]c2ccccc12)N[C@@H]1C(=O)NC[C@H]1O` [Compound 120], the IC50 was < 0.25 µM. In the case of `Cc1cc(F)cc2c(CCC(=O)N[C@@H]3C(=O)NC[C@H]3O)c(-c3ccc(F)cc3)[nH]c12` [Compound 37], the IC50 was < 0.25 µM.
